Results on 59 molecules are retold here after the METLIN SMRT retention time set (Domingo-Almenara et al. 2019).

This data set is described as follows: gradient 5% acetonitrile 3 min, to 50% in 2 min, to 85% in 15 min, held 3 min, 100 µL/min. To be noted: column: Zorbax Extend-C18 2.1 x 50 mm; eluents: water / acetonitrile, 0.1% formic acid. The gist of the method:
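The mobile phases were water and acetonitrile, each with 0.1% formic acid, pumped at 100 μL/min through a Zorbax Extend-C18 column (2.1 × 50 mm, 1.8 μm). Pure standards were injected as mixtures of ~100 molecules and detected by a quadrupole time-of-flight mass spectrometer in positive and negative ionization mode. Retention time came from computationally picked adduct peaks, each inspected by hand.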
The molecule `Cn1nnc2cc(-c3noc(CNC(=O)c4ccccc4)n3)ccc21` had an RP-LC retention time of 708 s. `Cc1nc2ccn(Cc3ccco3)c(=O)c2cc1C(=O)N1CCN(C)CC1` registered an RP-LC retention time of 644 s. Molecule `COCc1nc(CCNS(=O)(=O)Cc2ccccc2)no1` came in with an RP-LC retention time of 722 s. Next, `Cc1cc(=O)n(CC(=O)Nc2cccc(C#N)c2)c(N2CCc3ccccc3C2)n1`: 772 s; `Fc1ccc(-c2n[nH]c(C3CCN(Cc4ccoc4)CC3)n2)cc1`: 595 s; `O=C(NCC12CCC=C1N(CC1CC1)C(=O)CC2)Nc1cccc(F)c1` (centres undefined): 876 s. Next, `COCc1nc2cccnc2n1C1CCN(C(=O)Nc2cc(OC)c(OC)c(OC)c2)CC1`: 659 s. The result for `Cn1c(=O)c2nc(SCCC(=O)Nc3cc(F)cc(F)c3)n(C)c2n(C)c1=O` reads 751 s; that for `CCOc1ccc(NC(=O)Cn2nc(N3CCC(C)CC3)c3ccccc3c2=O)cc1`, 1130 s; that for `O=C(NCc1ccco1)c1ccc2c(c1)N(Cc1ccccc1)C(=O)CO2`, 942 s.

`CCc1ccc(C2=Nc3cccnc3N(CC(=O)Nc3ccc(C(C)=O)cc3)C(=O)C2)cc1` gave an RP-LC retention time of 972 s. The result for `CCOC(=O)c1ccccc1NC(=O)Cn1c(=O)c(CCC(=O)NC2CCCC2)nc2ccccc21` reads 1130 s. Next, `CC1(C)Cc2cccc(OCc3ccc(C(=O)NCCN4CCOCC4)cc3)c2O1`: 586 s; `COc1ccc(C(=O)N2CCN3CCS(=O)(=O)N(C4CC4)C(=O)C3C2)cc1` (centres undefined): 715 s; `CCOC(=O)c1c(N)n(Cc2ccccc2)c2nc3ccccc3nc12`: 739 s.

The molecule `Cn1ncn2cc(S(=O)(=O)N3CCN(c4ccccn4)CC3)cc2c1=O` gave an RP-LC retention time of 578 s. The result for `O=C(Cn1nc(Cc2ccncc2)c2ccccc2c1=O)N1CC=C(c2ccccc2)CC1` reads 685 s; that for `Cc1ccc(S(=O)(=O)N2CCCC2c2nc(-c3ccc(F)cc3)no2)cc1Cl` (centres undefined), 1230 s. Regarding `Cc1nn(CC(=O)NCc2ccco2)c(=O)c2c(C)n(-c3ccccc3)nc12`, the RP-LC retention time worked out at 764 s. Regarding `COc1ccc(C2SCCN2S(=O)(=O)c2ccc(C)c([N+](=O)[O-])c2)cc1OC` (centres undefined), the RP-LC retention time turned out to be 900 s.

Molecule `CCOc1ccc(CC(=O)N2c3ccccc3CC2c2nc(C3CC3)no2)cc1OCC` (centres undefined) gave an RP-LC retention time of 1070 s.

Consider `Cc1ccc(Cl)cc1NC(=O)Cc1c(C)nn(-c2nc(-c3ccc(F)cc3)cs2)c1C`, for which the RP-LC retention time amounted to 1250 s. `COc1nccnc1NC1CCN(C(=O)c2cccnc2)CC1` returned an RP-LC retention time of 692 s. The result for `CCOCCCNC(=O)C1CCCN(c2nc3ccc(Br)cc3[nH]2)C1` (centres undefined) reads 625 s; that for `Cc1ccc(CNC(=O)N2CCC[C@@H]2C(=O)NCc2csc(-c3ccccc3)n2)cc1`, 824 s.

Molecule `CCc1cc(-c2csc(S(=O)(=O)Nc3ccc(C)c(C)c3)c2)on1` came in with an RP-LC retention time of 1050 s.

As to `CC1(C)CC(=O)c2c(nc(N3CCN(c4ccccn4)CC3)nc2Nc2ccccc2)C1`, the RP-LC retention time amounted to 841 s.

In the case of `CCOc1ccc(NC(=O)Cn2nc3cc(C)nc(-c4cccc(Cl)c4)n3c2=O)cc1`, the RP-LC retention time came out at 971 s. The result for `COc1ccc(/C=C/c2cc3c(cc2OC)OCCO3)cc1O` reads 938 s; that for `O=C(Nc1ccncc1)c1cc([N+](=O)[O-])ccc1Cl`, 638 s. `Cn1ncc(N2CCCC(CC(=O)NCc3cccs3)C2)cc1=O` (centres undefined) came in with an RP-LC retention time of 676 s. Next, `CCOc1ccc(C(=O)NC(C(=O)Nc2nc3ccccc3[nH]2)C(C)CC)cc1` (centres undefined): 750 s; `NC(=O)C1CCN(C(=O)COCc2cc(-c3cccs3)on2)CC1`: 640 s.

For the molecule `O=C(c1ccccc1)N1CCCCC1c1nncn1CC1CC1` (centres undefined), the RP-LC retention time worked out at 592 s. For `CCOC(=O)N1CCN(C(=O)C2CCN(c3ccc(Sc4ccc(C(C)C)cc4)nn3)CC2)CC1`, the RP-LC retention time was found to be 896 s. The result for `CC(C)CN1CCN(C(=O)c2cc3c(s2)CCN(C(=O)c2ccc(Cl)cc2)C3)CC1` reads 664 s; that for `CC(C)c1nc(-n2cccc2)sc1C(=O)NCCc1ccc(S(N)(=O)=O)cc1`, 924 s; that for `c1ccc(Sc2ncnc3ccccc23)cc1`, 1050 s. The result for `CCCCNC(=O)C1CCCN(c2cc(=O)n(C)c(=O)n2C)C1` (centres undefined) reads 641 s; that for `Cc1ccc(C)c(S(=O)(=O)N2CCCN(c3ccc(=O)n(-c4ccccc4)n3)CC2)c1`, 947 s. Next, `CCn1c(=O)sc2cc(S(=O)(=O)N3CCC(C(=O)Nc4ccc(C)c(Cl)c4)CC3)ccc21`: 905 s; `CC(=O)Nc1cccc(C(=O)NCCc2c[nH]c3ccc(F)cc23)c1`: 711 s. `CCCCNc1c(C(=O)OC)c(=O)[nH]c2c(Cl)cccc12` displayed an RP-LC retention time of 783 s. Next, `CC(C)Cc1cc(-c2nn3c(-c4cccc(Cl)c4)nnc3s2)n[nH]1`: 1080 s; `CC[C@H](C)Nc1c(C(=O)OC)c(=O)[nH]c2c(Cl)cccc12`: 783 s; `O=C(c1ccc(F)c(Cl)c1)N1CCN(c2cc(-c3ccc(F)cc3)[nH]n2)CC1`: 894 s. Next, `COc1cc(N)c(Cl)cc1C(=O)CCC1CCN(CCNS(C)(=O)=O)CC1`: 673 s; `O=C(Cn1cc(S(=O)(=O)c2ccc(F)cc2)c2ccccc21)NC1CC1`: 748 s; `CC1CC(C)CN(CCCNC(=O)CCCn2c(=O)c3cccn3c3ccccc32)C1` (centres undefined): 659 s. The result for `COc1cccc(NC(=O)N2CCC(n3c(-c4ccoc4)nc4cccnc43)C2)c1` (centres undefined) reads 715 s. Regarding `Cn1c(=O)c(N2CCC(C(=O)NCCc3ccco3)CC2)nc2ccccc21`, the RP-LC retention time is 794 s. Take `O=C(NCc1ccccn1)C1=C2CCCN2c2ccc(F)cc2S1(=O)=O`: the RP-LC retention time came to 1030 s. `CC(C)(C)NCC(O)COc1ccc(NC(=O)NC2CCCCC2)cc1` (centres undefined) registered an RP-LC retention time of 628 s.

In turn, `Cc1ccc(CC(=O)Nc2ccc(-c3nc(Cn4cc(C)cn4)c(C)o3)cc2)cc1` returned an RP-LC retention time of 962 s. The result for `CC1CN2C=NC(N3CCN(C(=O)Nc4ccc5c(c4)CCC5)CC3)=CC2=N1` (centres undefined) reads 655 s; that for `O=C(c1n[nH]c(=O)c2ccccc12)N1C[C@H]2C[C@H](C1)[C@H]1CCCC(=O)N1C2`, 598 s. Next, `O=C1N(c2ccccc2)CC12CCN(S(=O)(=O)Cc1ccccc1)CC2`: 654 s; `NC(=O)C1CCN(C(=O)NC2CC(=O)N(c3ccc(Cl)cc3)C2)CC1` (centres undefined): 587 s; `Cc1c2cnn(-c3ccccc3)c(=O)c2c(C)n1C(C)C(=O)NCCCN1CCN(C)CC1` (centres undefined): 581 s.
